One block for each compound: values may come before it.
Columns and labels:
[1] = tested on: rhIFNγ stimulated STAT-3 phosphorylation in the A549 human epithelial cell line; experiment: A549 Cell Assay: Inhibition of pSTAT3; type: cell-based; conditions: A549 cells
Experimental: A549 Cell Assay: Inhibition of pSTAT3
An assay measuring the efficacy of JAK inhibitors on the functional response of recombinant human interferon γ (rhIFNγ) stimulated STAT-3 phosphorylation in the A549 human epithelial cell line.
A549 cells (ATCC #CCL-185), were plated at 30,000 cells/well in 96 well flat bottomed tissue culture plates (BD#353072) in 200 μL of growth medium (DMEM, Pfizer media prep, with 10% Fetal Bovine Serum, Sigma #F4135, 2 mM L-Glutamine, Pfizer media prep, 100 U/mL penicillin, Pfizer media prep, and 200 μg/ml streptomycin, Pfizer media prep), and cultured at 37° C., 5% CO2 incubator for 18 hours. Growth medium was removed by vacuum aspiration (V&P Scientific #vp187 bp-60), and 90 μL of pre-warmed assay medium (DMEM with 0.2% BSA, Miltenyi #130-091-376) was added to each well and incubated for 15 minutes at 37° C. 10 μL of vehicle control or test compound (final concentration range of 0.3 nM to 10 μM with 0.1% DMSO) was added to the cells. Plates were incubated at 37° C. for 1 hour. After compound incubation, 10 μL of 220 ng/mL recombinant human IFNγ (R&D Systems #285-IF, final rhIFNγ concentration of 20 ng/mL) was added to the cells and plates were incubated for 30 minutes at 37° C. Wells containing A549 cells, medium with 0.1% DMSO and no rhIFNγ were used as background controls. After rhIFNγ stimulation, media was aspirated from each well and 35 μL/well of iced-cold MSD lysis buffer containing protease and phosphatase inhibitors from Phospho-STAT3 Tyr705 assay kit (Meso-Scale Discovery #K150DID) was added to each well. Plates were incubated at 4° C. with shaking for 30 minutes. Cell lysates were assayed following the MSD Phospho-STAT3 Tyr705 assay kit protocol to detect pSTAT3.
Data were collected and transformed into percent inhibition and calculated using the following formula: […]

JAK1 = JAK1 (Homo sapiens (Human), UniProt P23458); experiment: JAK Caliper Enzyme Assay at 1 mM ATP (JAK1); type: biochemical; conditions: Caliper assay at 1 mM ATP
JAK1, sequence (P23458 whole entry, species assumed): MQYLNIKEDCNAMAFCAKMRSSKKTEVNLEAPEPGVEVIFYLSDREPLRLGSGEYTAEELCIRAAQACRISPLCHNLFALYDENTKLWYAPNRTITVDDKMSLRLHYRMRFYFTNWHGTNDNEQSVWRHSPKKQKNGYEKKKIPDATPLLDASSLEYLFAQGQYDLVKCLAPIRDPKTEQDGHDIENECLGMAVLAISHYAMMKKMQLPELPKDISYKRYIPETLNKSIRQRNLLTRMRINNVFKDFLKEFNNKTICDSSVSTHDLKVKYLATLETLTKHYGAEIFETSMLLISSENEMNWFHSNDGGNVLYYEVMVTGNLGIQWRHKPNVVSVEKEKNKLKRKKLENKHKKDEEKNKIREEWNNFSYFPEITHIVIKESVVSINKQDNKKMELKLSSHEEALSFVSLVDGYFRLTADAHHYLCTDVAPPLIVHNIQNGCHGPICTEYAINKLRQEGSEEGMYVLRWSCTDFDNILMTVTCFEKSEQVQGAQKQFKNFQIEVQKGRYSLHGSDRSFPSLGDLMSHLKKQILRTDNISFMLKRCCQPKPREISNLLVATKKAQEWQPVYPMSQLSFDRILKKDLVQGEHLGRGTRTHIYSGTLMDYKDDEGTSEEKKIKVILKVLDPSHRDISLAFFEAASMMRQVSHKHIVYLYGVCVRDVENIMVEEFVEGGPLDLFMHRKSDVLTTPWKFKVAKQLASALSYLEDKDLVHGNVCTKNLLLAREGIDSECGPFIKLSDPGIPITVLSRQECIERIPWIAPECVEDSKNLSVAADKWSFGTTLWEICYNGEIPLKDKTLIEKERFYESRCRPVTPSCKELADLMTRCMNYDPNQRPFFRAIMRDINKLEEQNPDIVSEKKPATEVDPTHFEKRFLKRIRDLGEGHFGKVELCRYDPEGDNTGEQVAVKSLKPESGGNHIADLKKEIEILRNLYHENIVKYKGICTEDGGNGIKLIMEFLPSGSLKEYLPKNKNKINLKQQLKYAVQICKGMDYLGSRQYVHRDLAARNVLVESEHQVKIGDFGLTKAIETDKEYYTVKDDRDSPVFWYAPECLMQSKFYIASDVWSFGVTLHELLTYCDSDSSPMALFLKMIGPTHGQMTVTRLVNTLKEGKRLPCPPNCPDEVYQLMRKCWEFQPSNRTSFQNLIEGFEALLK

JAK3 = JAK3 (Homo sapiens (Human), UniProt P52333); experiment: JAK Caliper Enzyme Assay at 1 mM ATP (JAK3); type: biochemical; conditions: Caliper assay at 1 mM ATP
JAK3, sequence (P52333 whole entry, species assumed): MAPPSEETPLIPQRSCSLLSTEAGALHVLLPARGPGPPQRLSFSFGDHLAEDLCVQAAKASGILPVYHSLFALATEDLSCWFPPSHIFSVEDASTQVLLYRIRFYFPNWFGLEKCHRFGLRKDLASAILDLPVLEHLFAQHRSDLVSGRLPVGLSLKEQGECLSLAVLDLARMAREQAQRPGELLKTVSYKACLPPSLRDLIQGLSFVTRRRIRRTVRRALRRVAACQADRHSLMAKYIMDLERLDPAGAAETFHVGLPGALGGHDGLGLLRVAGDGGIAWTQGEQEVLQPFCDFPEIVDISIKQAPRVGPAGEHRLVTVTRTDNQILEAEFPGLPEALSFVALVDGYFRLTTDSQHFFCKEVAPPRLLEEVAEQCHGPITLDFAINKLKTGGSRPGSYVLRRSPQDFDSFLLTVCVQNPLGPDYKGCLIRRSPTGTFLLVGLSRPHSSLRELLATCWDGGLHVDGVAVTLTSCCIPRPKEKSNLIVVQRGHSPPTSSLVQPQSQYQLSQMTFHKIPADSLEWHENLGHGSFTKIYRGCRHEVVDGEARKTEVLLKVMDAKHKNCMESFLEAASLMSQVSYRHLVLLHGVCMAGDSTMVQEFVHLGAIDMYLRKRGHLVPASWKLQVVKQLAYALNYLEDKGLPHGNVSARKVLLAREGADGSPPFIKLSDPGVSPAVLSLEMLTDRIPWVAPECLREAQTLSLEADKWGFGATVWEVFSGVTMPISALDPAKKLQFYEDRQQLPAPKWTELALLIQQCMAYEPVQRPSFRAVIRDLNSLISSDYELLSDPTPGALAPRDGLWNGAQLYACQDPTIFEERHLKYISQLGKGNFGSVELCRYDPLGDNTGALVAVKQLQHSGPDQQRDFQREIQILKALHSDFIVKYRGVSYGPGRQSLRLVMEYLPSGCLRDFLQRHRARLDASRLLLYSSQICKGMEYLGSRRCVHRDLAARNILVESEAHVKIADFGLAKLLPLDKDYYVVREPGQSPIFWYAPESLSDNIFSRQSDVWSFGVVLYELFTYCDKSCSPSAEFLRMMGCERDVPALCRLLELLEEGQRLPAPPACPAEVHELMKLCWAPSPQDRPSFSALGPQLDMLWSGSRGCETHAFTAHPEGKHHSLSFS

JAK2 = JAK2 (Homo sapiens (Human), UniProt O60674); experiment: JAK Caliper Enzyme Assay at 1 mM ATP (JAK2); type: biochemical; conditions: Caliper assay at 1 mM ATP
JAK2, sequence (O60674 whole entry, species assumed): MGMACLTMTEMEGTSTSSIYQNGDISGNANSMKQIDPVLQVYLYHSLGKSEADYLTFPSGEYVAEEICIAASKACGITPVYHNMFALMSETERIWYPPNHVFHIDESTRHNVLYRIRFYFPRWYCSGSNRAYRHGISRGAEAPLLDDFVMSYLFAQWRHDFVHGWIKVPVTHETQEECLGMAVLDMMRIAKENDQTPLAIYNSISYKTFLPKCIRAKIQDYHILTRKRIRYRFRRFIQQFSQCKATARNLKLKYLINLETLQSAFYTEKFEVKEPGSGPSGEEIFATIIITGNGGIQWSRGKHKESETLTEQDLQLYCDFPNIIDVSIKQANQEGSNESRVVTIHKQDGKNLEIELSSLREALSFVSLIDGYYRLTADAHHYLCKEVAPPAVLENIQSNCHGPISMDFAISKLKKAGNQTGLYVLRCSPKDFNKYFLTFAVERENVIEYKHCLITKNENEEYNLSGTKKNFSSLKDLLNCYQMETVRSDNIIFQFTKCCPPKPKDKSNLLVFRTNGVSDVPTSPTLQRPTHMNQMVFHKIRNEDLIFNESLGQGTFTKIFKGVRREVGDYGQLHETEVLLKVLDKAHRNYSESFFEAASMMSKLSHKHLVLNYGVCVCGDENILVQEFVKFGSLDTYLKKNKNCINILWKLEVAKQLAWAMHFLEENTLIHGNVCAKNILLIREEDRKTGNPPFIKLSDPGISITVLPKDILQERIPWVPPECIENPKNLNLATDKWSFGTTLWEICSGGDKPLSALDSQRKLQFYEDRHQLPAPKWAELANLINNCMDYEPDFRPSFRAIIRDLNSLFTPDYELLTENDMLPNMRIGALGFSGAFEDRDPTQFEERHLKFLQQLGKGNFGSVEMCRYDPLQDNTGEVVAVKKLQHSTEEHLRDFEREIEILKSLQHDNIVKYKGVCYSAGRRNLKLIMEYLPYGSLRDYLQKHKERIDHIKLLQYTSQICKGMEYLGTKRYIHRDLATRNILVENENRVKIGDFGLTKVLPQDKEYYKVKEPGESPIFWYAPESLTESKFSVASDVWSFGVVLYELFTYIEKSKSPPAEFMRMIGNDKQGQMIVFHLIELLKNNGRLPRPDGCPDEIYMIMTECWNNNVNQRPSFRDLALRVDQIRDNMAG

TYK2 = TYK2 (Homo sapiens (Human), UniProt P29597); experiment: JAK Caliper Enzyme Assay at 1 mM ATP (TYK2); type: biochemical; conditions: Caliper assay at 1 mM ATP
TYK2, sequence (P29597 whole entry, species assumed): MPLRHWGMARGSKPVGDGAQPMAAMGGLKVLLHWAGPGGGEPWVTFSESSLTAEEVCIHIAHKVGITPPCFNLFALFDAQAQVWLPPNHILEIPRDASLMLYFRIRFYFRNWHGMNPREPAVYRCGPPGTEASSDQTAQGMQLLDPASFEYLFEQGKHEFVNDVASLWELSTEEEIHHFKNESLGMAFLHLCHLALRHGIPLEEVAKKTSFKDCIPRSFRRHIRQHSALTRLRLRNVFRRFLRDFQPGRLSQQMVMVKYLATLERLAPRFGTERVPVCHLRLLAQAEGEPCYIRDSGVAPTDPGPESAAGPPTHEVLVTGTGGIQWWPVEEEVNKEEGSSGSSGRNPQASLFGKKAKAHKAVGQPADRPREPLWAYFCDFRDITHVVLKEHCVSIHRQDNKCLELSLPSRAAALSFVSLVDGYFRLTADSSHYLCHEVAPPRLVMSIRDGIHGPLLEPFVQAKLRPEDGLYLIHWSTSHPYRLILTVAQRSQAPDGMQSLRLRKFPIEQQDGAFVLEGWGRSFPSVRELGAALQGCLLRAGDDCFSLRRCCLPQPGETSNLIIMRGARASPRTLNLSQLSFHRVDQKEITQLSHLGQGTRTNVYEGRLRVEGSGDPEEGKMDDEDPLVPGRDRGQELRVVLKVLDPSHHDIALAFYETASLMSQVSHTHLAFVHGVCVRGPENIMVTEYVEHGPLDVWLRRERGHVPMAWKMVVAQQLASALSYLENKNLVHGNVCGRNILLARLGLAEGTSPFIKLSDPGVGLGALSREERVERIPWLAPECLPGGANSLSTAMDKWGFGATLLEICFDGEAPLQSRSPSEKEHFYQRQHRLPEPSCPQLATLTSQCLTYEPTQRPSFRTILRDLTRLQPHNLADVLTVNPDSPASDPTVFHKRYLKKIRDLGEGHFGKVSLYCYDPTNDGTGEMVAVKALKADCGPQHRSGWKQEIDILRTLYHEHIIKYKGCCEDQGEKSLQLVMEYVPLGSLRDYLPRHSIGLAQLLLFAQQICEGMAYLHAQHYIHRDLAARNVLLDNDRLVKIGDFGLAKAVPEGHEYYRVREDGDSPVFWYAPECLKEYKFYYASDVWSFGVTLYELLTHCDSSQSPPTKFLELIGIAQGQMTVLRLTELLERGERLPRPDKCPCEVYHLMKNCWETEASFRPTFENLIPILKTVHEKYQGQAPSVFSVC

- IC50 ([1]; Homo sapiens): > 10000 nM
Structure (SMILES): CN(c1ccc(O)cc1CNc1nc(-c2cc(F)c(O)cc2CC(F)(F)F)nc2[nH]nc(-c3nc4c([nH]3)CCNC4)c12)S(C)(=O)=O [Example 169, N-{2-[({6-[5-Fluoro-4-hydroxy-2-(2,2,2-trifluoroethyl)phenyl]-3-(4,5,6,7-tetrahydro-1H-imidazo[4,5-c]pyridin-2-yl)-1H-pyrazolo[3,4-d]pyrimidin-4-yl}amino)methyl]-4-hydroxyphenyl}-N-methylmethanesulfonamide]

- IC50 ([1]; Homo sapiens): 6880 nM
Structure (SMILES): CNC(=O)c1n[nH]c2nc(-c3cc(F)c(O)cc3CC(F)(F)F)nc(NCc3nccnc3N(C)S(C)(=O)=O)c12 [Example 100, 6-(5-Fluoro-4-hydroxy-2-(2,2,2-trifluoroethyl)phenyl)-N-methyl-4-(((3-(N-methylmethyl-sulfonamido)pyrazin-2-yl)methyl)amino)-1H-pyrazolo[3,4-d]pyrimidine-3-carboxamide]

- IC50 ([1]; Homo sapiens): 13300 nM
Structure (SMILES): CN(c1ccccc1CNc1nc(-c2cc(F)c(O)cc2CC(F)(F)F)nc2[nH]nc(-c3nnc(C4CCN(C(=O)CN5CCCC5)CC4)[nH]3)c12)S(C)(=O)=O [Example 168, N-(2-{[(6-[5-Fluoro-4-hydroxy-2-(2,2,2-trifluoroethyl)phenyl]-3-{5-[1-(pyrrolidin-1-ylacetyl)piperidin-4-yl]-4H-1,2,4-triazol-3-yl}-1H-pyrazolo[3,4-d]pyrimidin-4-yl)amino]methyl}phenyl)-N-methylmethanesulfonamide]

- IC50 ([1]; Homo sapiens): 1180 nM
Structure (SMILES): CN(c1cc(O)ccc1CNc1nc(-c2cc(F)c(O)cc2CC(F)(F)F)cc2[nH]nc(C(N)=O)c12)S(C)(=O)=O [Example 41, 6-[5-Fluoro-4-hydroxy-2-(2,2,2-trifluoroethyl)phenyl]-4-({4-hydroxy-2-[methyl(methylsulfonyl)amino]benzyl}amino)-1H-pyrazolo[4,3-c]pyridine-3-carboxamide]

- IC50 ([1]; Homo sapiens): 1350 nM
Structure (SMILES): CN(c1ccc(O)cc1CNc1nc(-c2cc(F)c(O)cc2CC(F)(F)F)cc2[nH]nc(C(=O)Nc3ccc(NCCO)nc3)c12)S(C)(=O)=O [Example 75, 6-[5-Fluoro-4-hydroxy-2-(2,2,2-trifluoroethyl)phenyl]-N-{6-[(2-hydroxyethyl)amino]pyridin-3-yl}-4-({5-hydroxy-2-[methyl(methylsulfonyl)amino]benzyl}amino)-1H-pyrazolo[4,3-c]pyridine-3-carboxamide]

- IC50 (JAK1): 4 nM
- IC50 (JAK3): 68.7 nM
- IC50 (JAK2): 18.9 nM
- IC50 (TYK2): 148 nM
Structure (SMILES): CCN(c1nccnc1CNc1nc(-c2cc(F)c(O)cc2CC(F)(F)F)cc2[nH]nc(C(=O)NC)c12)S(C)(=O)=O [Example 45, 4-[({3-[ethyl(methyl-sulfonyl)-amino]pyrazin-2-yl}methyl)amino]-6-[5-fluoro-4-hydroxy-2-(2,2,2-trifluoroethyl)phenyl]-N-methyl-1H-pyrazolo[4,3-c]pyridine-3-carboxamide]

- IC50 (JAK1): 4.3 nM
- IC50 (JAK3): 83.3 nM
- IC50 (JAK2): 18.5 nM
- IC50 (TYK2): 16.1 nM
Structure (SMILES): CCc1cc(O)c(F)cc1-c1cc2[nH]nc(-c3nc(C)c[nH]3)c2c(NCc2ccccc2N(C)S(C)(=O)=O)n1 [Example 159, N-[2-({[6-(2-Ethyl-5-fluoro-4-hydroxyphenyl)-3-(4-methyl-1H-imidazol-2-yl)-1H-pyrazolo[4,3-c]pyridin-4-yl]amino}methyl)phenyl]-N-methylmethanesulfonamide]

- IC50 (JAK1): 2.1 nM
- IC50 (JAK3): 54 nM
- IC50 (JAK2): 13.7 nM
- IC50 (TYK2): 45.9 nM
Structure (SMILES): CNC(=O)c1n[nH]c2cc(-c3cc(F)c(O)cc3CC(F)(F)F)nc(NCc3ncccc3N(C)S(C)(=O)=O)c12 [Example 55, 6-[5-Fluoro-4-hydroxy-2-(2,2,2-trifluoroethyl)phenyl]-N-methyl-4-[({3-[methyl(methylsulfonyl)amino]pyridin-2-yl}methyl)amino]-1H-pyrazolo[4,3-c]pyridine-3-carboxamide]

- IC50 (JAK1): 6.3 nM
- IC50 (JAK3): 131 nM
- IC50 (JAK2): 23 nM
- IC50 (TYK2): 66 nM
Structure (SMILES): CNC(=O)c1n[nH]c2cc(-c3cc(F)c(O)cc3CC(F)(F)F)nc(NCC(C)C)c12 [Example 16, 6-[5-fluoro-4-hydroxy-2-(2,2,2-trifluoroethyl)phenyl]-N-methyl-4-[(2-methylpropyl)amino]-1H-pyrazolo[4,3-c]pyridine-3-carboxamide]

Further lines, the compound ahead of its results:

Structure (SMILES): Cc1cnc(N(C)S(C)(=O)=O)c(CNc2nc(-c3cc(F)c(O)cc3CC(F)(F)F)cc3[nH]nc(C(N)=O)c23)c1 [Example 86, 6-(5-fluoro-4-hydroxy-2-(2,2,2-trifluoroethyl)phenyl)-4-(((5-methyl-2-(N-methylmethylsulfonam-ido)pyridin-3-yl)methyl)amino)-1H-pyrazolo[4,3-c]pyridine-3-carboxamide]
- IC50 [1]: 425 nM

Structure (SMILES): CCc1cc(O)c(F)cc1-c1cc2[nH]nc(C(=O)NC)c2c(NCC2CCCC2)n1 [Example 10, 4-[(cyclopentylmethyl)ami-no]-6-(2-ethyl-5-fluoro-4-hydroxyphenyl)-N-methyl-1H-pyrazolo[4,3-c]pyridine-3-carboxamide]
- IC50 [1]: 26 nM

Structure (SMILES): CNC(=O)c1n[nH]c2cc(-c3cc(F)c(O)cc3CC(F)(F)F)nc(NCc3cc(O)ccc3N(C)S(=O)(=O)c3ccccc3)c12 [Example 35, 6-[5-fluoro-4-hydroxy-2-(2,2,2-trifluoroethyl)phenyl]-4-({5-hydroxy-2-[methyl(phenylsulfon-yl)amino]benzyl}amino)-N-methyl-1H-pyrazolo[4,3-c]pyridine-3-carboxamide]
- IC50 [1]: 437 nM

Structure (SMILES): CCc1cc(O)c(F)cc1-c1cc2[nH]nc(C(=O)NC)c2c(NCc2ccccc2N(CC)S(C)(=O)=O)n1 [Example 9, 6-(2-ethyl-5-fluoro-4-hydroxyphenyl)-4-({2-[ethyl(methylsulfonyl)ami-no]benzyl}amino)-N-methyl-1H-pyrazolo[4,3-c]pyridine-3-carboxamide]
- IC50 [1]: 14.9 nM

Structure (SMILES): CNC(=O)c1n[nH]c2cc(-c3cc(F)c(O)cc3CC(F)(F)F)nc(NCc3c(F)cccc3N(C)S(C)(=O)=O)c12 [Example 18, 6-[5-fluoro-4-hydroxy-2-(2,2,2-trifluoroethyl)phenyl]-4-({2-fluoro-6-[methyl(meth-ylsulfonyl)amino]benz-yl}amino)-N-methyl-1H-pyrazolo[4,3-c]pyridine-3-carboxamide]
- IC50 [1]: 97 nM

Structure (SMILES): CCc1cc(O)c(F)cc1-c1cc2[nH]nc(C(=O)NC)c2c(NCCc2ccc(NS(=O)(=O)c3ccccc3)cc2)n1 [Example 23, 6-(2-ethyl-5-fluoro-4-hydroxyphenyl)-N-methyl-4-[(2-{4-[(phenylsulfonyl)-amino]phenyl}ethyl)ami-no]-1H-pyrazolo[4,3-c]pyridine-3-carboxamide]
- IC50 [1]: 51.4 nM

Structure (SMILES): CSCCNc1nc(-c2cc(F)c(O)cc2CC(F)(F)F)cc2[nH]nc(-c3nc4c([nH]3)CCN(Cc3ccccc3)C4)c12 [Example 161, 4-[3-(5-Benzyl-4,5,6,7-tetrahydro-1H-imidazo[4,5-c]pyridin-2-yl)-4-{[2-(methylsulfanyl)-ethyl]amino}-1H-pyrazolo[4,3-c]pyridin-6-yl]-2-fluoro-5-(2,2,2-trifluoroethyl)phenol]
- IC50 ([1]; Homo sapiens): > 10000 nM

Structure (SMILES): CCN(c1ccccc1CNc1nc(-c2cc(F)c(O)cc2CC(F)(F)F)cc2[nH]nc(C(=O)NC)c12)S(C)(=O)=O [Example 12, 4-({2-[ethyl(methylsulfon-yl)amino]benzyl}ami-no)-6-[5-fluoro-4-hydroxy-2-(2,2,2-trifluoroethyl)phenyl]-N-methyl-1H-pyrazolo[4,3-c]pyridine-3-carboxamide]
- IC50 [1]: 44.9 nM

Structure (SMILES): CCS(=O)(=O)N(C)c1ccccc1CNc1nc(-c2cc(F)c(O)cc2CC(F)(F)F)cc2[nH]nc(C(=O)NC)c12 [Example 13]
- IC50 [1]: 96.7 nM

Structure (SMILES): CNC(=O)c1n[nH]c2cc(-c3cc(F)c(O)cc3CC(F)(F)F)nc(NCc3ccc(O)cc3N(C)S(C)(=O)=O)c12 [Example 33, 6-[5-fluoro-4-hydroxy-2-(2,2,2-trifluoroethyl)phenyl]-4-({4-hydroxy-2-[methyl(methylsulfon-yl)amino]benzyl}amino)-N-methyl-1H-pyrazolo[4,3-c]pyridine-3-carboxamide]
- IC50 [1]: 490 nM

Structure (SMILES): CCc1cc(O)c(F)cc1-c1cc2[nH]ncc2c(N(CC)Cc2cc(C)ccc2N(C)S(C)(=O)=O)n1 [Example 143, N-[2-({ethyl[6-(2-ethyl-5-fluoro-4-hydroxyphenyl)-1H-pyrazolo[4,3-c]pyridin-4-yl]amino}methyl)-4-methylphenyl]-N-methylmethanesulfonamide]
- IC50 (JAK1): 40.4 nM
- IC50 (JAK3): 122 nM
- IC50 (JAK2): 43.6 nM
- IC50 (TYK2): 4660 nM

Source: patent publication US9518052B2, “Pyrazolopyridines and pyrazolopyrimidines” (Pfizer Inc., priority 2014, dated 2016)
